Assay results: patent publication US20050267182A1, “Urea derivatives as FLT-3 modulators” (Ambit Biosciences Corporation, priority 2003, published 2005)

Tests used:
MV4,11 cells = assay: FLT3 assay using MV4,11 cells (cellular proliferation, MTS); format: cell-based, human; conditions: cell assay code CS0001
Procedure, shortened: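 MV4,11 AML cells, […] switch to DMEM/10% FBS overnight, plated at 10,000 cells/well and exposed to serially diluted compounds in duplicate for 3 days at 37° C., 5% CO2. Proliferation read by MTS added for 2 h.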

FLT3 = target: T1, FLT3 (Homo sapiens, UniProt P36888); assay: Binding constant (Kd) measurement, phage-displayed kinase competition binding assay; conditions: for Binding Assay: FLT3(DKIN): FLT3(DKIN) construct; for Binding Assay: FLT3(JMminus): FLT3(JMminus) construct; for Binding Assay: FLT3(JMplus): FLT3(JMplus) construct
T1 construct: FLT3(DKIN); made in house
T1 sequence (P36888 610-943 limits assumed): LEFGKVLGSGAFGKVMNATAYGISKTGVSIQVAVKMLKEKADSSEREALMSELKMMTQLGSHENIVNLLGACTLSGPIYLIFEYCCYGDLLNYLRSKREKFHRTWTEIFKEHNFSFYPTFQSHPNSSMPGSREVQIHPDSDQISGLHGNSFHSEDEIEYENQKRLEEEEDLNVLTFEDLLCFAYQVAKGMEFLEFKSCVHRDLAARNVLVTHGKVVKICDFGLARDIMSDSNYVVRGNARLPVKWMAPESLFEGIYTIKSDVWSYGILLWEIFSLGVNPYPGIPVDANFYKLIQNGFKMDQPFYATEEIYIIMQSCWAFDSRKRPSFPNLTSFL
From the text: Binding Constant (Kd) Measurements for Small-Molecule-Kinase Interactions
The term “ND” represents non-determined values.

CS0005 = assay: Cell Assay: CS0005; format: cell-based; conditions: cell assay code CS0005
CS0002 = assay: Cell Assay: CS0002; format: cell-based; conditions: cell assay code CS0002

| Structure (SMILES) | Cell Assay: CS0001:IC50 (MV4,11 cells) | Binding Assay: FLT3(DKIN) (FLT3) | Cell Assay: CS0005:IC50 (CS0005) | Cell Assay: CS0002:IC50 (CS0002) | IC50 (CS0002) | Binding Assay: FLT3(JMminus) (FLT3) | Binding Assay: FLT3(JMplus) (FLT3) |
| --- | --- | --- | --- | --- | --- | --- | --- |
| CC(C)(C)c1cc(NC(=O)Nc2ccc(OCc3cc(F)cc(F)c3)cc2)no1 [Compound G16] | + + + + | + + + + | + + + | + + |  |  |  |
| CC(C)(C)c1cc(NC(=O)Nc2ccc(NC(=O)c3csc(-c4ccncc4)n3)cc2)no1 [Compound N16] | + + + + | + + + + | + + + |  | > 10 µM |  |  |
| Cc1ccc2sc(C(=O)Nc3ccc(NC(=O)Nc4cc(C(C)(C)C)on4)cc3)cc2c1 [Compound N133] | + + + + | + + + + | + + + + | + + |  |  |  |
| CC(C)(C)c1cc(NC(=O)Nc2ccc(NC(=O)CSCC(=O)Nc3ccccc3)cc2)no1 [Compound N72] | + + + + |  | + + + + | + + |  | + + + + |  |
| CC(C)(C)c1cc(NC(=O)Nc2ccc(OCC3CCC3)cc2)no1 [Compound G39] | + + + + | + + + + | + + + | + + |  |  |  |
| CC(C)(C)c1cc(NC(=O)Nc2ccc(OCCc3ccncc3)cc2)no1 [Compound G22] | + + + + | + + + + | + + + + |  | > 10 µM |  |  |
| CC(C)(C)c1cc(NC(=O)Nc2ccc(Nc3ncnc4[nH]cnc34)cc2)no1 [Compound O3] | + + + + | + + + + | + + + + | + + |  |  |  |
| Cc1cc(C)nc(N(C)c2ccc(C(=O)Nc3ccc(NC(=O)Nc4cc(C(C)(C)C)on4)cc3)cc2)n1 [Compound N50] | + + + + | + + + + | + + + | + + |  |  |  |
| CC(C)(C)c1cc(NC(=O)Nc2ccc(Nc3nc(N)nc4[nH]cnc34)cc2)no1 [Compound O6] | + + + + | + + + + | + + + + |  | > 10 µM |  |  |
| CC(C)(C)c1cc(NC(=O)Nc2ccc(C(=O)Nc3ccc(OCC4CCC4)cc3)cc2)no1 [Compound N100] | + + + + | + + + + | + + + + | + + | > 10 µM |  |  |
| Cc1ccc2[nH]c(C(=O)Nc3ccc(NC(=O)Nc4cc(C(C)(C)C)on4)cc3)cc2c1 [Compound N127] | + + + + |  | + + + + | + + |  | + + + + |  |
| Cn1nc(-c2ccccc2)c2cc(C(=O)Nc3ccc(NC(=O)Nc4cc(C(C)(C)C)on4)cc3)sc21 [Compound N5] | + + + + | + + + + | + + + + | + + + |  |  |  |
| CC(C)(C)c1cc(NC(=O)Nc2ccc(OCc3ccccc3Cl)cc2)no1 [Compound G10] | + + + + | + + + + | + + + | + + |  |  |  |
| CC(C)(C)c1cc(NC(=O)Nc2ccc(OCc3ccc4ccccc4c3)cc2)no1 [Compound G3] | + + + + | + + + + | + + + + | + + |  |  |  |
| COc1cc2nc(Cl)nc(Nc3ccc(NC(=O)Nc4cc(C(C)(C)C)on4)cc3)c2cc1OC [Compound O1, 1-(4-(2-chloro-6,7-dimethoxyquinazolin-4-ylamino)phenyl)-3-(5-tert-butylisoxazol-3-yl)urea] | + + + + | + + + + | + + + + | + + |  |  |  |

Results, then the compound that gave them:

| Cell Assay: CS0001:IC50 (MV4,11 cells) | Binding Assay: FLT3(DKIN) (FLT3) | Cell Assay: CS0005:IC50 (CS0005) | Cell Assay: CS0002:IC50 (CS0002) | IC50 (CS0002) | Binding Assay: FLT3(JMminus) (FLT3) | Binding Assay: FLT3(JMplus) (FLT3) | Structure (SMILES) |
| --- | --- | --- | --- | --- | --- | --- | --- |
| + + + + | + + + + | + + + + | + + |  |  |  | CC(C)(C)c1cc(NC(=O)Nc2ccc(NC(=O)c3ccc4ccccc4n3)cc2)no1 [Compound N143] |
| + + + + | + + + + | + + + + |  | > 10 µM |  |  | Cc1cccnc1C(=O)Nc1ccc(NC(=O)Nc2cc(C(C)(C)C)on2)cc1 [Compound N41] |
| + + + + | + + + + | + + + + |  | > 10 µM |  |  | CC(C)(C)c1cc(NC(=O)Nc2ccc(NC(=O)c3cscn3)cc2)no1 [Compound N57] |
| + + + + | + + + + | + + + + |  | > 10 µM |  |  | CC(C)(C)c1cc(NC(=O)Nc2ccc(NC(=O)c3ccc4sccc4c3)cc2)no1 [Compound N122] |
| + + + + | + + + + | + + + + | + + + |  |  |  | CC(C)(C)c1cc(NC(=O)Nc2ccc(NC(=O)c3cccc4cccnc34)cc2)no1 [Compound N115] |
| + + + + | + + + + | + + + + | + + |  |  |  | CC(C)(C)c1cc(NC(=O)Nc2ccc(NC(=O)c3cn4cc(Cl)ccc4n3)cc2)no1 [Compound N3] |
| + + + + | + + + + | + + + + | + + |  |  |  | CC(C)(C)c1cc(NC(=O)Nc2ccc(NC(=O)c3cccc(Cl)n3)cc2)no1 [Compound N4] |
| + + + + | + + + + | + + + + |  | > 10 µM | + + + + | + + + | CC(C)(C)c1cc(NC(=O)Nc2ccc(NC(=O)c3ccccn3)cc2)no1 [Compound N188] |
| + + + + |  | + + + + | + + |  | + + + + |  | CC(C)(C)c1cc(NC(=O)Nc2ccc(NC(=O)c3cc4ccccc4[nH]3)cc2)no1 [Compound N161] |
| + + + + | + + + + | + + + + | + + |  |  |  | CC(C)(C)c1cc(NC(=O)Nc2ccc(NC(=O)c3cn4nc(Cl)ccc4n3)cc2)no1 [Compound N9] |
| + + + + | + + + + | + + + + | + + |  |  |  | CC(C)(C)c1cc(NC(=O)Nc2ccc(NC(=O)c3cnc4ccccc4c3)cc2)no1 [Compound N108] |
| + + + + | + + + + | + + + + | + + |  |  |  | Cc1cccc(C(=O)Nc2ccc(NC(=O)Nc3cc(C(C)(C)C)on3)cc2)n1 [Compound N121] |
| + + + + |  | + + + + |  | > 10 µM | + + + + |  | Cc1cnc(C(=O)Nc2ccc(NC(=O)Nc3cc(C(C)(C)C)on3)cc2)c(C(=O)O)n1 [Compound N160] |
| + + + + | + + + + | + + + |  | > 10 µM |  |  | CC(C)(C)c1cc(NC(=O)Nc2ccc(NC(=O)c3cccc(O)n3)cc2)no1 [Compound N131] |
| + + + + |  | + + + + | + + |  | + + + + |  | CN(C)c1ccc(C(=O)Nc2ccc(NC(=O)Nc3cc(C(C)(C)C)on3)cc2)cn1 [Compound N159] |
| + + + + |  | + + + + | + + |  | + + + + |  | CC(=O)Oc1cccnc1C(=O)Nc1ccc(NC(=O)Nc2cc(C(C)(C)C)on2)cc1 [Compound N79] |
| + + + + | + + + + | + + + |  | > 10 µM |  |  | CC(C)(C)c1cc(NC(=O)Nc2ccc(NC(=O)c3cccc4nsnc34)cc2)no1 [Compound N109] |
| + + + + | + + + + | + + + + |  | > 10 µM |  |  | CC(C)(C)c1cc(NC(=O)Nc2ccc(NC(=O)c3cnccn3)cc2)no1 [Compound N136] |
| + + + + | + + + + | + + + + | + + |  | + + + + | + + + | CC(C)(C)c1cc(NC(=O)Nc2ccc(NC(=O)c3ncccc3O)cc2)no1 [Compound N134] |
| + + + + | + + + + | + + + + |  | > 10 µM |  |  | Cc1cnc(C(=O)Nc2ccc(NC(=O)Nc3cc(C(C)(C)C)on3)cc2)cn1 [Compound O2] |
